Data taken from patent US11014902B2, “MYC G-quadruplex stabilizing small molecules and their use” (The United States of America, as represented by the …, priority 2015, dated 2021).

What was measured:
Test in all cases: NCI-60 cell growth (SRB)
Type in all cases: cell-based
ACHN = conditions: Renal Cancer, 10 μM, 48 hours
Description: (§1) This example illustrates that Compounds 1 and 23 can be used in inhibit the growth of c-Myc expressing cancer cell lines in vitro. The NCI-60 panel of cancer cell lines (see Shoemaker, Nat. Rev. Cancer, 6, 813-823, 2006, and dtp.cancer.gov/discovery_development/nci-60/) was assayed for cell growth in the presence of 10 μM Compound 1 or Compound 23 for 48 hours. At 48 hours, the assay was terminated by fixation with TCA and determination of relative cell counts by addition of Sulforhodamine B (SRB, see Alley et al., Cancer Research, 48: 589-601, 1988.). Growth percent was determined by comparison of SRB reading of a duplicate plate of cells taken at the time of compound addition to the SRB reading at the termination of the treatment. The following table provides a summary of the percent of growth of each cell line in the panel compared to control (no treatment), as well as the mean delta and range of percent growth compared to control across the panel of cell lines for each treatment condition.

MCF7 = conditions: MCF7, Breast Cancer; 10 μM, 48 hours
Description: as §1

TK-10 = conditions: TK-10, Renal Cancer; 10 μM, 48 hours
Description: as §1

SW-620 = conditions: SW-620, Colon Cancer; 10 μM, 48 hours
Description: as §1

SR = conditions: Leukemia, 10 μM, 48 hours
Description: as §1

NCI-H322M = conditions: Non-Small Cell Lung Cancer, 10 μM, 48 hours
Description: as §1

SK-MEL-28 = conditions: SK-MEL-28, Melanoma; 10 μM, 48 hours
Description: as §1

HOP-62 = conditions: HOP-62, Non-Small Cell Lung Cancer; 10 μM, 48 hours
Description: as §1

PC-3 = conditions: PC-3, Prostate Cancer; 10 μM, 48 hours
Description: as §1

HCC-2998 = conditions: HCC-2998, Colon Cancer; 10 μM, 48 hours
Description: as §1

NCI-H460 = conditions: NCI-H460, Non-Small Cell Lung Cancer; 10 μM, 48 hours
Description: as §1

SF-268 = conditions: SF-268, CNS Cancer; 10 μM, 48 hours
Description: as §1

SF-295 = conditions: SF-295, CNS Cancer; 10 μM, 48 hours
Description: as §1

OVCAR-3 = conditions: OVCAR-3, Ovarian Cancer; 10 μM, 48 hours
Description: as §1

COLO 205 = conditions: COLO 205, Colon Cancer; 10 μM, 48 hours
Description: as §1

SK-MEL-5 = conditions: SK-MEL-5, Melanoma; 10 μM, 48 hours
Description: as §1

SNB-19 = conditions: SNB-19, CNS Cancer; 10 μM, 48 hours
Description: as §1

RXF 393 = conditions: RXF 393, Renal Cancer; 10 μM, 48 hours
Description: as §1

OVCAR-4 = conditions: OVCAR-4, Ovarian Cancer; 10 μM, 48 hours
Description: as §1

CAKI-1 = conditions: CAKI-1, Renal Cancer; 10 μM, 48 hours
Description: as §1

SN12C = conditions: Renal Cancer, 10 μM, 48 hours
Description: as §1

OVCAR-5 = conditions: OVCAR-5, Ovarian Cancer; 10 μM, 48 hours
Description: as §1

A498 = conditions: A498, Renal Cancer; 10 μM, 48 hours
Description: as §1

KM12 = conditions: KM12, Colon Cancer; 10 μM, 48 hours
Description: as §1

DU-145 = conditions: DU-145, Prostate Cancer; 10 μM, 48 hours
Description: as §1

NCI-H226 = conditions: NCI-H226, Non-Small Cell Lung Cancer; 10 μM, 48 hours
Description: as §1

EKVX = conditions: Non-Small Cell Lung Cancer, 10 μM, 48 hours
Description: as §1

SNB-75 = conditions: SNB-75, CNS Cancer; 10 μM, 48 hours
Description: as §1

HS 578T = conditions: Breast Cancer, 10 μM, 48 hours
Description: as §1

HOP-92 = conditions: HOP-92, Non-Small Cell Lung Cancer; 10 μM, 48 hours
Description: as §1

RPMI-8226 = conditions: RPMI-8226, Leukemia; 10 μM, 48 hours
Description: as §1

MDA-MB-231/ATCC = conditions: Breast Cancer, 10 μM, 48 hours
Description: as §1

NCI-H522 = conditions: NCI-H522, Non-Small Cell Lung Cancer; 10 μM, 48 hours
Description: as §1

SK-MEL-2 = conditions: SK-MEL-2, Melanoma; 10 μM, 48 hours
Description: as §1

786-0 = conditions: 786-0, Renal Cancer; 10 μM, 48 hours
Description: as §1

What does the source list for `Cc1oc2ccc(O)c(CN3CCCCCC3)c2c1C(=O)Nc1ccc(C(F)(F)F)cc1` [Compound 23]?
Growth Percent (ACHN): 68.48%; Growth Percent (MCF7): 48.09%; Growth Percent (TK-10): 81.06%; Growth Percent (SW-620): 67.44%; Growth Percent (SR): −8.44%; Growth Percent (NCI-H322M): 69.34%; Growth Percent (SK-MEL-28): 76.90%; Growth Percent (HOP-62): 70.39%; Growth Percent (PC-3): 45.70%; Growth Percent (HCC-2998): 11.22%; Growth Percent (NCI-H460): 51.53%; Growth Percent (SF-268): 75.44%; Growth Percent (SF-295): 48.84%; Growth Percent (OVCAR-3): 62.02%; Growth Percent (COLO 205): 48.73%; Growth Percent (SK-MEL-5): 69.97%; Growth Percent (SNB-19): 69.94%; Growth Percent (RXF 393): 50.40%; Growth Percent (OVCAR-4): 58.58%; Growth Percent (CAKI-1): 50.46%; Growth Percent (SN12C): 66.72%; Growth Percent (OVCAR-5): 85.79%; Growth Percent (A498): 50.48%; Growth Percent (KM12): 65.50%; Growth Percent (DU-145): 64.80%; Growth Percent (NCI-H226): 72.45%; Growth Percent (EKVX): 64.06%; Growth Percent (SNB-75): 50.57%; Growth Percent (HS 578T): 65.50%; Growth Percent (HOP-92): 34.88%; Growth Percent (RPMI-8226): 75.08%; Growth Percent (MDA-MB-231/ATCC): 48.96%; Growth Percent (NCI-H522): 72.52%; Growth Percent (SK-MEL-2): 78.38%; Growth Percent (786-0): 49.50%

With `Cc1ccc(NC(=O)c2c(C)oc3ccc(O)c(CN4CCCCCC4)c23)cc1` [Compound 1] as the molecule, how does the “Growth Percent” value (ACHN) read?
Its value is 93.94%.

What about the “Growth Percent” value (MCF7) of the same molecule?
Its value is 78.41%.

And the “Growth Percent” value (TK-10)?
Its value is 92.66%.

What about the “Growth Percent” value (SW-620) of the same molecule?
Its value is 85.97%.

What about the “Growth Percent” value (SR) of the same molecule?
Its value is 83.12%.

And the “Growth Percent” value (NCI-H322M)?
Its value is 97.51%.

And the “Growth Percent” value (SK-MEL-28)?
Its value is 96.60%.

What about the “Growth Percent” value (HOP-62) of the same molecule?
Its value is 79.76%.

And the “Growth Percent” value (PC-3)?
Its value is 79.90%.

And the “Growth Percent” value (HCC-2998)?
Its value is 116.36%.

And the “Growth Percent” value (NCI-H460)?
Its value is 80.25%.

What about the “Growth Percent” value (SF-268) of the same molecule?
The value was 100.73%.

What about the “Growth Percent” value (SF-295) of the same molecule?
The value was 85.34%.

What about the “Growth Percent” value (OVCAR-3) of the same molecule?
The value was 101.03%.

And the “Growth Percent” value (COLO 205)?
Its value is 104.20%.

What about the “Growth Percent” value (SK-MEL-5) of the same molecule?
The value was 86.08%.

What about the “Growth Percent” value (SNB-19) of the same molecule?
Its value is 84.35%.

What about the “Growth Percent” value (RXF 393) of the same molecule?
The value was 81.36%.

What about the “Growth Percent” value (OVCAR-4) of the same molecule?
Its value is 82.06%.

And the “Growth Percent” value (CAKI-1)?
Its value is 75.13%.

What about the “Growth Percent” value (SN12C) of the same molecule?
The value was 84.31%.

And the “Growth Percent” value (OVCAR-5)?
Its value is 95.63%.

And the “Growth Percent” value (A498)?
The value was 64.12%.

What about the “Growth Percent” value (KM12) of the same molecule?
The value was 102.59%.

What about the “Growth Percent” value (DU-145) of the same molecule?
Its value is 103.26%.

What about the “Growth Percent” value (NCI-H226) of the same molecule?
The value was 85.66%.

What about the “Growth Percent” value (EKVX) of the same molecule?
Its value is 83.79%.

What about the “Growth Percent” value (SNB-75) of the same molecule?
Its value is 78.34%.

What about the “Growth Percent” value (HS 578T) of the same molecule?
The value was 88.40%.

And the “Growth Percent” value (HOP-92)?
The value was 55.89%.

What about the “Growth Percent” value (RPMI-8226) of the same molecule?
The value was 91.38%.

And the “Growth Percent” value (MDA-MB-231/ATCC)?
The value was 79.39%.

What about the “Growth Percent” value (NCI-H522) of the same molecule?
The value was 90.68%.

What about the “Growth Percent” value (SK-MEL-2) of the same molecule?
Its value is 99.26%.

And the “Growth Percent” value (786-0)?
The value was 84.68%.
